We go through 9 compounds from US11541029B2, “High penetration compositions and their applications” (Techfields Pharma Co., Ltd., priority 2008, dated 2023).

The test system of series [1] is Human colon cancer cells (LS174J). Briefly: Human colon cancer xenograft in nude mice. The text has this:
Human colon cancer cells (LS174J, 2-3 mm^3 of tumor tissue was used in each mouse) were subcutaneously xenografted into nude mice (BALB).

The test system of series [2] is Human breast cancer cells (BCAP-37). Kind of series: Human breast cancer xenograft in nude mice. As to the method:
Human breast cancer cells (BCAP-37, 2-3 mm^3 of tumor tissue was used in each mouse) were subcutaneously xenografted into nude mice (BALB, 12 groups, 7 mice each group). […] 50 μl of 5% (equal to 2.5 mg of the HPCs) diethylaminoethyl acetylsalicylate.HCl (P-1, in pure water); 1-piperidinepropyl 2[(2,6-dichlorophenyl)amino]benzene acetate.HCl (P-2, in water), 1-pyrrolidinepropyl 2-(3-benzoylphenyl) propionate.HCl (P-3, in water), 4-piperidinemethyl 2-(3-phenoxyphenyl)propionate.HCl (P-4, in water), 3-piperidinemethyl 2-(ρ-isobutylphenyl) propionate.HCl (P-5, in water), diethylaminoethyl 1-(p-chlorobenzoyl)-5-methoxy-2-methylindole 3-acetate.HCl (P-11, in water), 2-(4-morpholinyl)ethyl (Z)-5-fluoro-2-methyl-1-[(4-methylsulfinyl)phenylmethylene]-1H-indene-3-acetate.
A general note: In xenograft studies the graft and the host belong to different species.

The test system of series [3] is Human Gastric Cancer HGC-27 cell. Briefly: HGC-27 cell proliferation, MTT assay. The conditions noted are these: 72 hours. Type of series: cell-based. As to the method:
The inhibition of cellular proliferation was measured by the modified dimethyl thiazolyl diphenyl tetrazolium salt (MTT) [3-(4,5-dimethylthiazol-2-yl)-2,5-diphenyltetrazolium bromide] assay, based on the ability of live cells to converting thiazolyl blue to dark blue formazan. Approximately 3500 cells of HGC-27 (in 100 μl culture solution) were seeded into 96-well culture plates and were cultured for 16 hours at 37° C. Different concentration solution (100 μl) of Taxol (positive control), chlorambucil, or N,N-diethylaminoethyl 4-[bis(2-chloroethyl)amino]benzenebutyrate.HCl salt (HPC of chlorambucil) were added and incubation continued for 72 hours at 37° C. Then MTT were added and incubation continued at 37° C. for 4 h, and 100 μl DMSO was pipetted to solubilize the formazan product for 30 min at room temperature. The absorbency at 570 nm was measured using Bio-Rad micro-plate reader […].
On the technique in general: Tetrazolium assays rely on reduction of a dye to a coloured formazan, in cell work by metabolically active cells.

Series [4] in a line: Distribution in organs of rats killed with CO2 (absence of general circulation).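 Also: tissue concentration in nmol/g.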 The conditions noted are these: 5 hrs after 0.3 mmol/kg diethylaminoethyl acetylsalicylate HCl salt on back of killed rats. As to the method: 0.3 mmol/kg of diethylaminoethyl acetylsalicylate HCl salt (10% in pure water) was applied to the back of rats (10 cm^2) which were killed with CO2. The rats were shaken for 5 hrs, then the HPCs and parent drugs in organs of rats were determined.

The test system of series [5] is rats given sterilized E. coli suspension as a pyrogen. Kind of series: Antipyretic activity of aspirin and its HPC (Study B). The series is classed as in vivo. Here is the method:
[…] Group A was the control group. The body temperature of rats was taken at 90 min. intervals before and after the administration of the test compounds.

Series [6] has as its system type 2 diabetes rat models [SLAC/GK(Goto and Kakisaki)]. Kind of series: Hypoglycemic effects of aspirin and its HPC in GK rats, once per day for 6 weeks.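 As to Blood Glucose Levels at day 42: blood glucose in mg/dL.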 Type of series: in vivo. The conditions noted are these: for Blood Glucose Levels at day 1 / Blood Glucose Levels at day 42: no fasting, n = 5.
Experimental: The blood glucose levels were measured three times every week (no fasting) from the third week to the sixth week.
The mark [7] stands for this setting: about 50 μl of 5% topically every 12 hours.
[8] abbreviates: 50 μl of 5% topically every 8 hours.

In the case of `CN(C)CCCC(=O)OC1=C(C(=O)Nc2nccs2)N(C)S(=O)(=O)c2ccccc21.Cl` [P-52, N-(2-thiazoyl)-4-N,N-dimethylaminobutyryloxy-2-methyl-2H,1,2-benzothiazine-3-carboxamide 1,1-dioxide.HCl], the “tumor Size at day 30” value in series [1] (setting [7]) was 720 ± 280 mm^3. The “Weight of mice at day 30” value in series [1] (in vivo) came to 23 ± 3.
For `CCN(CC)CCOC(=O)c1ccccc1Nc1c(Cl)ccc(C)c1Cl.Cl` [P-47, diethylaminoethyl 2-[(2,6-dichloro-3-methylphenyl)amino]benzoate.HCl], in that order: 590 ± 350 mm^3 and 22 ± 2.
For `Cl.O=C(Cc1ccccc1Nc1c(Cl)cccc1Cl)OCCCN1CCCCC1` [P-2, 1-piperidinepropyl 2[(2,6-dichlorophenyl)amino]benzene acetate.HCl], the “tumor Size at day 42” value in series [2] (setting [8]) was 160 ± 50 mm^3. Also, the “Weight of mice at day 42” value in series [2] (50 μl of 5% topically every 8 hours, in g (unit assumed)) was found to be 23 ± 2. For the same compound, in series [1] (setting [7]), the “Weight of mice at day 30” value amounted to 22 ± 2 and the “tumor Size at day 30” value came out at 520 ± 170 mm^3.
Regarding `CCN(CC)CCOC(=O)CCCc1ccc(N(CCCl)CCCl)cc1.Cl` [HPC of chlorambucil, N,N-diethylaminoethyl 4-[bis(2-chloroethyl)amino]benzenebutyrate.HCl salt], the “HGC-27 cell growth inhibition rate” value is given as 15.6% in series [3] (0.5 μM); 28.7% in series [3] (2.0 μM); 42.1% in series [3] (5.0 μM); 61.6% in series [3] (25 μM); 82.1% in series [3] (50 μM); 96.5% in series [3] (75 μM). The “HGC-27 cell growth inhibition rate” value in series [3] (100 μM) is 98.1%; in series [3] (200 μM), 97.2%; in series [3] (500 μM) it was 98.2%.
As to `Cl.Nc1c(CC(=O)OCCN2CCOCC2)cccc1C(=O)c1ccccc1` [P-16, 2-(4-morpholinyl)ethyl 2-amino-3-benzoylbenzeneacetate.HCl], the “tumor Size at day 30” value in series [1] (setting [7]) stood at 590 ± 350 mm^3. Further, the “Weight of mice at day 30” value in series [1] (in vivo) turned out to be 23 ± 2.
In the case of `CC(=O)Oc1ccccc1C(=O)O` [aspirin, acetylsalicylic acid, reference compound], the “concentration in Leg muscle” value in series [4] is on record as 6.7 ± 2.1 nmol/g. The concentration in kidney in series [4] came out at 3.5 ± 2.1 nmol/g. Besides, in series [4], the concentration in liver was found to be 2.1 ± 1.0 nmol/g. The concentration in pancreas in series [4] is 4.1 ± 1.3 nmol/g. Also, the concentration in stomach in series [4] is reported as 4.7 ± 2.5 nmol/g. Also, the body temperature in series [5] (20 mg/kg, orally, t = 0 min., in °C (unit assumed)) is 37.5 ± 0.2; in series [5] (20 mg/kg, orally, t = 90 min., in °C (unit assumed)) it was 37.7 ± 0.3; in series [5] (20 mg/kg, orally, t = 180 min., in °C (unit assumed)), 37.4 ± 0.3; in series [5] (20 mg/kg, orally, t = 270 min., in °C (unit assumed)) it was 37.4 ± 0.4; in series [5] (50 mg/kg, orally, t = 0 min., in °C (unit assumed)) it was 37.5 ± 0.3; in series [5] (50 mg/kg, orally, t = 90 min., in °C (unit assumed)), 37.7 ± 0.3. The body temperature in series [5] (50 mg/kg, orally, t = 180 min., in °C (unit assumed)) amounted to 37.1 ± 0.3; in series [5] (50 mg/kg, orally, t = 270 min., in °C (unit assumed)), 37.0 ± 0.4; in series [5] (100 mg/kg, orally, t = 0 min., in °C (unit assumed)) it was 37.5 ± 0.2; in series [5] (100 mg/kg, orally, t = 90 min., in °C (unit assumed)), 37.3 ± 0.4; in series [5] (100 mg/kg, orally, t = 180 min., in °C (unit assumed)), 36.7 ± 0.3; in series [5] (100 mg/kg, orally, t = 270 min., in °C (unit assumed)), 36.8 ± 0.4. In addition, the body temperature in series [5] (groups H/I, 50 mg/kg, transdermally, t = 0 min., in °C (unit assumed)) is given as 37.6 ± 0.3; in series [5] (groups H/I, 50 mg/kg, transdermally, t = 90 min., in °C (unit assumed)), 37.9 ± 0.3; in series [5] (groups H/I, 50 mg/kg, transdermally, t = 180 min., in °C (unit assumed)) it was 37.8 ± 0.4; in series [5] (groups H/I, 50 mg/kg, transdermally, t = 270 min., in °C (unit assumed)), 37.7 ± 0.5; in series [5] (groups J/K, 20 mg/kg, transdermally, t = 0 min., in °C (unit assumed)), 37.6 ± 0.3; in series [5] (groups J/K, 20 mg/kg, transdermally, t = 90 min., in °C (unit assumed)) it was 37.8 ± 0.4. The body temperature in series [5] (groups J/K, 20 mg/kg, transdermally, t = 180 min., in °C (unit assumed)) is 37.7 ± 0.4; in series [5] (groups J/K, 20 mg/kg, transdermally, t = 270 min., in °C (unit assumed)), 38.0 ± 0.3; in series [5] (groups L/M, 20 mg/kg, transdermally, t = 0 min.), 37.5 ± 0.3; in series [5] (groups L/M, 20 mg/kg, transdermally, t = 90 min., in °C (unit assumed)) it was 37.6 ± 0.5; in series [5] (groups L/M, 20 mg/kg, transdermally, t = 180 min., in °C (unit assumed)), 37.8 ± 0.3; in series [5] (groups L/M, 20 mg/kg, transdermally, t = 270 min., in °C (unit assumed)), 37.9 ± 0.3. Also, the antipyretic activity entry in series [5] (transdermal administration) was “did not show any antipyretic activity”. The “Blood Glucose Levels at day 1” value is reported as 213.7 ± 20.5 mg/dL in series [6] (50 mg/kg, orally); 216.6 ± 17.3 mg/dL in series [6] (50 mg/kg, transdermally); 211.3 ± 21.5 mg/dL in series [6] (100 mg/kg, orally); 217.4 ± 18.9 mg/dL in series [6] (100 mg/kg, transdermally); 213.5 ± 21.5 mg/dL in series [6] (200 mg/kg, orally); 216.4 ± 21.9 mg/dL in series [6] (200 mg/kg, transdermally). For the same compound, the “Blood Glucose Levels at day 1” value in series [6] (300 mg/kg, orally) is on record as 215.6 ± 22.4 mg/dL. The “Blood Glucose Levels at day 42” value in series [6] (50 mg/kg, orally) is on record as 243.4 ± 26.7 mg/dL; in series [6] (50 mg/kg, transdermally) it was 258.2 ± 17.4 mg/dL; in series [6] (100 mg/kg, orally) it was 219.4 ± 19.9 mg/dL; in series [6] (100 mg/kg, transdermally) it was 255.4 ± 24.6 mg/dL; in series [6] (200 mg/kg, orally) it was 195.4 ± 23.4 mg/dL; in series [6] (200 mg/kg, transdermally), 247.4 ± 27.8 mg/dL. Further, in series [6] (300 mg/kg, orally), the “Blood Glucose Levels at day 42” value was 165.4 ± 22.1 mg/dL. Further, in series [6] (transdermal administration), the anti-diabetic effect result is “did not show any anti-diabetic effect”.
In the case of `CC(C(=O)OCCCN1CCCC1)c1cccc(C(=O)c2ccccc2)c1.Cl` (centres unmarked) [P-3, 1-pyrrolidinepropyl 2-(3-benzoylphenyl) propionate.HCl], the “tumor Size at day 42” value in series [2] (setting [8]) is 210 ± 60 mm^3. In addition, in series [2] (in vivo), the “Weight of mice at day 42” value is given as 22 ± 3. The “tumor Size at day 30” value in series [1] (setting [7]) amounted to 550 ± 190 mm^3. Besides, the “Weight of mice at day 30” value in series [1] (in vivo) stood at 23 ± 2.
As for `CC(C(=O)OCC1CCNCC1)c1cccc(Oc2ccccc2)c1.Cl` (centres unmarked) [P-4, 4-piperidinemethyl 2-(3-phenoxyphenyl)propionate.HCl], the “tumor Size at day 42” value in series [2] (setting [8]) is recorded as 190 ± 55 mm^3. For the same compound, the “Weight of mice at day 42” value in series [2] (in vivo) came out at 23 ± 3. For the same compound, the “tumor Size at day 30” value in series [1] (setting [7]) is given as 550 ± 128 mm^3. Moreover, in series [1] (in vivo), the “Weight of mice at day 30” value is given as 22 ± 3.
Take `CCN(CC)CCOC(=O)c1ccccc1Nc1cccc(C)c1C.Cl` [P-46, diethylaminoethyl 2-[(2,3-dimethylphenyl)amino]benzoate.HCl]: in series [1] (setting [7]), the “tumor Size at day 30” value came out at 650 ± 250 mm^3. In series [1] (in vivo), the “Weight of mice at day 30” value is recorded as 23 ± 3.
